Assay results published in ChEMBL document CHEMBL1201862, “PubChem BioAssay data set” (2004).
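A five-concentration, 48-hour dose response in 96-well plates underlies each endpoint, interpolated linearly between surrounding concentrations. GI50: concentration for 50% inhibition of growth.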 Calls of active or inactive are those of the source. Rule as the data show it: active = GI50 up to about 1.1 µM and inactive = higher.

Experiments:
Experiment in all cases: DTP human tumour cell line panel, 48 h
A549 = system: A549
ACHN = system: ACHN
CAKI-1 = system: CAKI-1
CCRF-CEM = system: CCRF-CEM
HL-60 = system: HL-60
HOP-92 = system: HOP-92
HT-29 = system: HT-29
Hs-578T = system: Hs-578T
IGROV-1 = system: IGROV-1
MDA-MB-231 = system: MDA-MB-231
MDA-N = system: MDA-N
MOLT-4 = system: MOLT-4
NCI-H460 = system: NCI-H460
OVCAR-3 = system: OVCAR-3
SK-MEL-2 = system: SK-MEL-2
SN12C = system: SN12C
SNB-75 = system: SNB-75
SR = system: SR
U-251 = system: U-251
UACC-257 = system: UACC-257

**Q.** What does the source list for `CCOC(=O)CCC(NC(=O)c1ccc(Nc2cnc3cc(C(F)(F)F)ccc3n2)cc1)C(=O)OCC` (stereo not given)?
**A.** GI50 (A549): > 89.3 µM (inactive); GI50 (ACHN): 63.2 µM (inactive); GI50 (CAKI-1): 24.7 µM (inactive); GI50 (CCRF-CEM): > 100 µM (inactive); GI50 (HL-60): > 100 µM (inactive); GI50 (HOP-92): 23.9 µM (inactive); GI50 (HT-29): > 100 µM (inactive); GI50 (Hs-578T): 6.21 µM (inactive); GI50 (IGROV-1): 42 µM (inactive); GI50 (MDA-MB-231): > 100 µM (inactive); GI50 (MDA-N): > 100 µM (inactive); GI50 (MOLT-4): > 100 µM (inactive); GI50 (NCI-H460): 12.6 µM (inactive); GI50 (OVCAR-3): > 100 µM (inactive); GI50 (SK-MEL-2): > 100 µM (inactive); GI50 (SN12C): > 100 µM (inactive); GI50 (SNB-75): 1.9 µM (inactive); GI50 (SR): > 100 µM (inactive); GI50 (U-251): 9.48 µM (inactive); GI50 (UACC-257): > 100 µM (inactive)

**Q.** What does the source list for `CN(C)c1ccc(C2CC(C)(O)Oc3cc4c(cc32)OCO4)cc1` (stereo not given)?
**A.** GI50 (A549): 43.7 µM (inactive); GI50 (ACHN): 70.6 µM (inactive); GI50 (CAKI-1): 66.2 µM (inactive); GI50 (CCRF-CEM): 33.6 µM (inactive); GI50 (HL-60): 46.3 µM (inactive); GI50 (HOP-92): 25.9 µM (inactive); GI50 (HT-29): 26.9 µM (inactive); GI50 (Hs-578T): 61 µM (inactive); GI50 (IGROV-1): 1.73 µM (inactive); GI50 (MDA-MB-231): 18.2 µM (inactive); GI50 (MDA-N): 18.6 µM (inactive); GI50 (MOLT-4): > 100 µM (inactive); GI50 (NCI-H460): 40.9 µM (inactive); GI50 (OVCAR-3): 64.3 µM (inactive); GI50 (SK-MEL-2): 22.2 µM (inactive); GI50 (SN12C): 25.4 µM (inactive); GI50 (SNB-75): 25.3 µM (inactive); GI50 (SR): 9.33 µM (inactive); GI50 (U-251): 43.8 µM (inactive); GI50 (UACC-257): 62.4 µM (inactive)

**Q.** Which GI50 (A549) does the source give for `NC(=O)NC(=O)c1cccc(NC(=O)CF)c1` here?
**A.** > 100 µM (inactive)

**Q.** And the GI50 (ACHN)?
**A.** > 100 µM (inactive)

**Q.** What about the GI50 (CAKI-1) of the same compound?
**A.** > 100 µM (inactive)

**Q.** What about the GI50 (CCRF-CEM) of the same compound?
**A.** > 100 µM (inactive)

**Q.** What about the GI50 (HL-60) of the same compound?
**A.** > 100 µM (inactive)

**Q.** What about the GI50 (HOP-92) of the same compound?
**A.** > 100 µM (inactive)

**Q.** And the GI50 (HT-29)?
**A.** > 100 µM (inactive)

**Q.** And the GI50 (Hs-578T)?
**A.** > 100 µM (inactive)

**Q.** And the GI50 (IGROV-1)?
**A.** > 100 µM (inactive)

**Q.** What about the GI50 (MDA-MB-231) of the same compound?
**A.** > 100 µM (inactive)

**Q.** What about the GI50 (MDA-N) of the same compound?
**A.** > 100 µM (inactive)

**Q.** And the GI50 (MOLT-4)?
**A.** > 100 µM (inactive)

**Q.** And the GI50 (NCI-H460)?
**A.** > 100 µM (inactive)

**Q.** And the GI50 (OVCAR-3)?
**A.** > 100 µM (inactive)

**Q.** And the GI50 (SK-MEL-2)?
**A.** > 100 µM (inactive)

**Q.** And the GI50 (SN12C)?
**A.** > 100 µM (inactive)

**Q.** And the GI50 (SNB-75)?
**A.** > 100 µM (inactive)

**Q.** And the GI50 (SR)?
**A.** > 100 µM (inactive)

**Q.** What about the GI50 (U-251) of the same compound?
**A.** > 100 µM (inactive)

**Q.** And the GI50 (UACC-257)?
**A.** > 100 µM (inactive)

**Q.** What does the source list for `Cc1c2ccnc(C(=O)NCCN(C)C)c2cc2c3cc(O)ccc3n(C)c12`?
**A.** GI50 (A549): 0.0173 µM (active); GI50 (ACHN): 0.0188 µM (active); GI50 (CAKI-1): < 0.01 µM (active); GI50 (CCRF-CEM): < 0.0145 µM (active); GI50 (HL-60): < 0.022 µM (active); GI50 (HOP-92): 0.235 µM (active); GI50 (HT-29): 0.479 µM (active); GI50 (Hs-578T): 0.204 µM (active); GI50 (IGROV-1): 0.277 µM (active); GI50 (MDA-MB-231): 0.314 µM (active); GI50 (MDA-N): 0.286 µM (active); GI50 (MOLT-4): < 0.01 µM (active); GI50 (NCI-H460): < 0.01 µM (active); GI50 (OVCAR-3): 0.357 µM (active); GI50 (SK-MEL-2): 0.499 µM (active); GI50 (SN12C): 0.0596 µM (active); GI50 (SNB-75): 0.33 µM (active); GI50 (SR): < 0.0184 µM (active); GI50 (U-251): 0.0373 µM (active); GI50 (UACC-257): 1.53 µM (inactive)

**Q.** Which GI50 (A549) does the source give for `Cc1ccc(/N=C2\C(=O)C3=C(OC(C)(C)CC3)c3ccccc32)cc1` here?
**A.** 1.83 µM (inactive)

**Q.** What about the GI50 (ACHN) of the same compound?
**A.** 0.313 µM (active)

**Q.** And the GI50 (CAKI-1)?
**A.** 1.71 µM (inactive)

**Q.** What about the GI50 (CCRF-CEM) of the same compound?
**A.** 2.04 µM (inactive)

**Q.** And the GI50 (HL-60)?
**A.** 0.227 µM (active)

**Q.** And the GI50 (HOP-92)?
**A.** 1.77 µM (inactive)

**Q.** And the GI50 (HT-29)?
**A.** 0.247 µM (active)

**Q.** And the GI50 (Hs-578T)?
**A.** 2.82 µM (inactive)

**Q.** And the GI50 (IGROV-1)?
**A.** 0.703 µM (active)

**Q.** What about the GI50 (MDA-MB-231) of the same compound?
**A.** 1.68 µM (inactive)

**Q.** What about the GI50 (MDA-N) of the same compound?
**A.** 0.183 µM (active)

**Q.** What about the GI50 (MOLT-4) of the same compound?
**A.** 0.729 µM (active)

**Q.** And the GI50 (NCI-H460)?
**A.** 1.58 µM (inactive)

**Q.** What about the GI50 (OVCAR-3) of the same compound?
**A.** 0.151 µM (active)

**Q.** What about the GI50 (SK-MEL-2) of the same compound?
**A.** 1.7 µM (inactive)

**Q.** What about the GI50 (SN12C) of the same compound?
**A.** 0.505 µM (active)

**Q.** What about the GI50 (SNB-75) of the same compound?
**A.** 1.26 µM (inactive)

**Q.** What about the GI50 (SR) of the same compound?
**A.** 0.275 µM (active)

**Q.** What about the GI50 (U-251) of the same compound?
**A.** 0.577 µM (active)

**Q.** What about the GI50 (UACC-257) of the same compound?
**A.** 0.748 µM (active)
